The record followed here is patent publication US9289405B2, “Compounds provided with antioxidant activity against free radicals, and pharmaceutical and cosmetic compositions containing them” (GIULIANI S.P.A, priority 2010, dated 2016).

In one experiment the test system is THP-1 cells. Description: Modulation of the production of ROS induced by LPS, cytofluorometry with DCFH. The experiment is classed as cell-based, human. Conditions: 1 hour treatment, serum-free medium, LPS 0.1 μg/ml, compared with Trolox 100 μM, FIG. 1. As to the method: (§1) Two cellular systems were used: NCTC 2544, a line of human keratinocytes, and THP-1, a human promyelocytic line. The results were expressed as mean±standard deviation. Each experiment was repeated at least twice.
Tributyltin (TBT) and lipopolysaccharide (LPS) are used as […] inducers of radical species. The production of ROS was evaluated by cytofluorometry techniques for the THP-1 cell line, using DCFH as stain.
The optimum times and concentrations for cytofluorometric measurement of ROS were identified in preliminary experiments.
The vitamin E derivative 6-hydroxy-2,5,7,8-tetramethylchroman-2-carboxylic acid (Trolox), at a concentration of 100 μM, was used as positive control.
The THP-1 cells were treated for 1 hour with compounds 1 and 2 of the invention at a concentration of 100 μg/ml, with compound 3 at a concentration of 200 μg/ml and with Trolox 100 μM in serum-free medium, loaded in the last 30 minutes with DCFH (10 μM) and then treated in the presence or absence of LPS (0.1 μg/ml) and analysed in the cytofluorometer.

The subject of a further experiment is NCTC 2544 cells. Nature of the experiment: Lipid lipoperoxidation induced by TBT, malondialdehyde content via thiobarbituric acid. In kind it is cell-based, human. Conditions: 24 hours pre-treatment at maximum tolerated concentration, then TBT 2.5 μM for 24 hours, FIG. 2. As for the experimental part: as §1
Lipid peroxidation was evaluated on the NCTC 2544 cells by measuring the content of malondialdehyde, one of the main by-products of lipid peroxidation, through its reactivity with thiobarbituric acid. The results are expressed as absorbance/mg protein. The protein content was evaluated by the Bradford method.
The NCTC cells were treated for 24 hours in the presence or in the absence of the maximum tolerated concentration of said compounds 1, 2, 3, and then stimulated with TBT 1-2.5 μM for a further 24 hours.
Trolox 100 μM was used as positive control.

Structures can show the parent of a compound that is named as a salt.

On to `C/C=C/C=C/C=C/C(=O)O` [compound 1, 2E,4E,6E-octatrienoic acid], for which the “production of ROS induced by LPS” value with THP-1 cells (compound at 100 μg/ml) is “nullifying the production of ROS induced by LPS 0.1 μg/ml to an extent not less than Trolox”. For the same compound, the “lipoperoxidation induced by TBT (malondialdehyde content)” value with NCTC 2544 cells is given as “statistically significant (p<0.05) decrease of lipoperoxidation”.

`C/C=C/C=C/C=C/C(=O)[O-].[K+]` [compound 2, potassium 2E,4E,6E-octatrienoate]: in the experiment with THP-1 cells (compound at 100 μg/ml), the “production of ROS induced by LPS” value was “nullifying the production of ROS induced by LPS 0.1 μg/ml to an extent not less than Trolox”. In the experiment on NCTC 2544 cells, the “lipoperoxidation induced by TBT (malondialdehyde content)” value is “statistically significant (p<0.05) decrease of lipoperoxidation”.

Take `C/C=C/C=C/C=C/C(=O)O` [compound 3, 2E,4E,6E-octatrienoic acid, L-lysine salt]: the “production of ROS induced by LPS” value with THP-1 cells (compound at 200 μg/ml) is listed as “nullifying the production of ROS induced by LPS 0.1 μg/ml to an extent not less than Trolox”.
